Results on 14 compounds are retold here after patent US5939279A, “Inhibition of bacterial binding by high-mannose oligosaccharides” (priority 1997, dated 1999).

One assay has as its system Enterobacter cloacae. Nature of the assay: microbe, parasite or virus in culture. The assay is classed as cell-based. The conditions noted are these: for pIC50: 1 h, read-out: 50% inhibition of binding; for inhibition of binding: even at 100 mM concentrations. Here is the method: (§1) Bacterial adherence was measured as follows: confluent HT-29 cell monolayers, contained in 24 well plates, were washed two times with PBS. Various amounts of the labeled bacteria, all in the same final volume of buffer, were added to the monolayers and allowed to incubate at 37° C. for 1 hour, with intermittent agitation. At least three wells received each concentration of bacteria. At the end of the incubation, unbound bacteria were removed by aspiration, and the monolayers were washed at least 5 times with PBS. After this thorough washing, the HT-29 cells were released from each well with a trypsin-EDTA mixture and the cell suspension was placed in a scintillation vial. Each well was then washed with another 0.5 ml of water along with scraping with a plastic paddle to remove any firmly attached cells. This second wash was then added to the same vial that contained the first trypsin digest. Ten ml of scintillation fluid were added and radioactivity was determined as a measure of the number of bacteria bound.
A variety of simple sugars (D-mannose, D-galactose, D-fructose, L-fucose, D-GlcNAc, sialic acid) were tested at various concentrations to determine their ability to block the adhesion of Enterobacter cloacae to the HT-29 cells. In addition, p-nitrophenyl-α-D-mannoside and 4-methylumbelliferyl-α-D-mannoside and glycopeptides with various high-mannose or complex types of oligosaccharides were also tested as inhibitors. […] […] The plates were then incubated and harvested as described above in the adherence assay, and the amount of radioactivity bound to the cell monolayer was determined.

The next assay concerns the target 35 kDa pili subunit (Enterobacter cloacae, UniProt Q9Z643). The experiment in a line: Modified Western blot: labeling of pili adhesive subunit by α-mannosylated-biotinylated-albumin. Type of assay: binding. The conditions noted are these: 50 mM sugar in incubation; FIG. 5. For orientation: Immunoblotting shows a protein as a band on a membrane.
For the next assay, the system named is Escherichia coli. The conditions noted are these: studies by Firon et al (8); cited from earlier work.
The next assay has as its system HT-29 cells. Nature of the assay: Adhesion of E. cloacae to HT-29 cells grown in the presence of N-linked glycoprotein processing inhibitors. Type of assay: cell-based. The conditions noted are these: for activation at 5 µg/mL: inhibitor 5 μg/ml; for activation at 10 µg/mL: inhibitor 10 μg/ml; for activation at 50 µg/mL: inhibitor 50 μg/ml; for Adhesion (cpm): average of three sets of experiments; for change in the amount of radioactive bacteria bound: text summary of Table II; for activation at 25 µg/mL: inhibitor 25 μg/ml; for activation at 100 µg/mL: inhibitor 100 μg/ml. Here is the method:
as §1
HT-29 cells were transferred at low density to multiwell plates, and grown in McCoy's medium containing different concentrations of various processing inhibitors. Thus, one 24-well plate was divided into 4 sections, each with 6 wells having the following components: castanospermine at 0, 5, 10, 25, 50 and 100 μg/ml; deoxymannojirimycin at 0, 5, 25, 50, 100 and 200 μg/ml; kifunensine at 0, 2, 5, 10, 25 and 50 μg/ml; swainsonine at 0, 1, 5, 10, 25 and 50 μg/ml. HT-29 cells were allowed to grow to confluency over a period of 4 to 5 days. Once the cells reached confluency, the media was removed by aspiration and the monolayers were washed with PBS. Each well was then challenged with the same number of radioactive bacteria to determine the extent of bacterial adhesion, as described above in the adhesion assay.

The mark [1] stands for this setting: Homo sapiens, HT-29, percent relative to the control, read-out: Increase in adhesion (%).
Where [2] appears, read: inhibitor 5 μg/ml in culture medium.
[3] abbreviates: inhibitor 10 μg/ml in culture medium.
The mark [4] stands for this setting: inhibitor 25 μg/ml in culture medium.
Where [5] appears, read: inhibitor 50 μg/ml in culture medium.
Where [6] appears, read: inhibitor 100 μg/ml in culture medium.

pIC50: −log10 of the molar value.

35 kDa pili subunit, sequence (Q9Z643 entry or part of it): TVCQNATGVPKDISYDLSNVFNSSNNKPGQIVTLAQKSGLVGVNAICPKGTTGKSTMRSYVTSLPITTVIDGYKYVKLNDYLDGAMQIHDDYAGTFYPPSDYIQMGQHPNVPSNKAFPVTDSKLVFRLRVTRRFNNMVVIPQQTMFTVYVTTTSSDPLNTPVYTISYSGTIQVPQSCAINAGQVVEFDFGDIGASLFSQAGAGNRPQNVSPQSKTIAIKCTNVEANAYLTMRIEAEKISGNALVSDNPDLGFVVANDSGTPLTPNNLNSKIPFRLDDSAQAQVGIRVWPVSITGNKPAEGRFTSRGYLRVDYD
Method for 35 kDa pili subunit: Modified Western blot using an α-mannosylated-biotinylated-albumin, followed by an avidin-horseradish peroxidase conjugate and then visualization with 4-chloro-napthol according to the manufacturer's directions; D. Reaction system as in C, but incubated in the presence of 50 mM α-D-glucose; E. Reaction system as in C and D, but incubated in the presence of 50 mM α-D-mannose.
Thus, purified pili were subjected to 12% SDS-PAGE, and the resulting protein bands were transferred to nitrocellulose membranes. After washing the membranes to remove SDS, and incubating them with PBS containing 5% bovine serum albumin, they were incubated for 2 hours at room temperature with a mannosylated-albumin that contained a biotin tag. Some incubations also contained 50 mM D-mannose or 50 mM D-glucose.

As for `OC[C@H]1OC(O)[C@@H](O)[C@@H](O)[C@@H]1O` (stereo partly drawn) [D-mannose], in the assay with Enterobacter cloacae (Enterobacter cloacae), the pIC50 is 3.30. On 35 kDa pili subunit, the “labeling of the 35 kDa band by mannosylated-biotinylated-albumin” value is on record as “inhibited”.

Consider `Cc1cc(=O)oc2cc(O[C@H]3O[C@H](CO)[C@@H](O)[C@H](O)[C@@H]3O)ccc12` [4-methylumbilliferyl-α-D-mannoside, 4-methylumbelliferyl-α-D-mannoside], for which the “inhibitor of Escherichia coli binding to epithelial cells, relative effectiveness” value with Escherichia coli is on record as “even better then the p-nitrophenyl-derivative”. The pIC50 in the assay with Enterobacter cloacae (Enterobacter cloacae) is 5.00. In the assay on Enterobacter cloacae (Enterobacter cloacae, read-out: inhibition of binding), the inhibition at 100 µM lay within 80 to 90%.

For the compound `O=C[C@H](O)[C@@H](O)[C@@H](O)[C@H](O)CO` [D-galactose], the inhibition of binding result in the assay on Enterobacter cloacae is “did not inhibit binding”.

With `OC[C@H]1OC(O)[C@H](O)[C@@H](O)[C@@H]1O` (stereo partly drawn) [D-glucose], the inhibition of binding result in the assay on Enterobacter cloacae is on record as “did not inhibit binding”.

`C[C@H](O)[C@@H](O)[C@@H](O)[C@H](O)C=O` [L-fucose]: in the assay on Enterobacter cloacae, the inhibition of binding entry was “did not inhibit binding”.

For `CC(=O)N[C@H]1[C@H]([C@H](O)[C@H](O)CO)OC(O)(C(=O)O)C[C@@H]1O` (some centres unmarked) [sialic acid], the inhibition of binding entry in the assay with Enterobacter cloacae is reported as “did not inhibit binding”.

With `O=[N+]([O-])c1ccc(O[C@H]2O[C@H](CO)[C@@H](O)[C@H](O)[C@@H]2O)cc1` [p-nitrophenyl-α-D-mannoside], in the assay with Escherichia coli, the “inhibitor of Escherichia coli binding to epithelial cells, relative effectiveness” value is on record as “considerably better as an inhibitor than was α-methylmannoside”. For the same compound, the reversal of binding result with Enterobacter cloacae (0.5 mM added to the monolayers after the bacteria had bound) is on record as “reversed”. Further, the pIC50 in the assay with Enterobacter cloacae (Enterobacter cloacae) is 4.70.

Take `O[C@H]1[C@H]2[C@H](O)CCCN2C[C@H]1O` [Swainsonine]: the activation at 1 µg/mL in the assay on HT-29 cells (Homo sapiens, HT-29, inhibitor 1 μg/ml, percent relative to the control, read-out: Increase in adhesion (%)) is 10%. Also, in the assay with HT-29 cells (setting [1]), the activation at 5 µg/mL is 5%. In addition, the activation at 10 µg/mL with HT-29 cells (setting [1]) is 11%. Besides, the activation at 50 µg/mL with HT-29 cells (setting [1]) was determined as 8%. For the same compound, the “Adhesion (cpm)” value with HT-29 cells (inhibitor 1 μg/ml in culture medium) is listed as 15,219 cpm; in the assay on HT-29 cells (setting [2]), 14,577 cpm; in the assay on HT-29 cells (setting [3]) it was 15,275 cpm; in the assay on HT-29 cells (setting [4]), 13,857 cpm; in the assay with HT-29 cells (setting [5]), 14,965 cpm. Also, the “change in the amount of radioactive bacteria bound” value with HT-29 cells was “did not cause any change”.

For `CO[C@H]1O[C@H](CO)[C@@H](O)[C@H](O)[C@@H]1O` [α-methylmannoside], the reversal of binding result in the assay on Enterobacter cloacae (5 mM added to the monolayers after the bacteria had bound) is “reversed”. The pIC50 in the assay with Enterobacter cloacae (Enterobacter cloacae) is 3.82.

As to `OC[C@H]1NC[C@@H](O)[C@@H](O)[C@@H]1O` [Deoxymannojirimycin], the activation at 5 µg/mL in the assay on HT-29 cells (setting [1]) turned out to be 36%. The activation at 25 µg/mL in the assay on HT-29 cells (setting [1]) worked out at 47%. Besides, the activation at 50 µg/mL in the assay with HT-29 cells (setting [1]) was 49%. Besides, in the assay with HT-29 cells (setting [1]), the activation at 100 µg/mL came to 53%. Also, in the assay on HT-29 cells (Homo sapiens, HT-29, inhibitor 200 μg/ml, percent relative to the control, read-out: Increase in adhesion (%)), the activation at 200 µg/mL turned out to be 50%. Further, the “Adhesion (cpm)” value in the assay on HT-29 cells (setting [2]) is listed as 18,630 cpm; with HT-29 cells (setting [4]) it was 20,180 cpm; with HT-29 cells (setting [5]) it was 20,500 cpm; with HT-29 cells (setting [6]) it was 21,018 cpm; in the assay with HT-29 cells (inhibitor 200 μg/ml in culture medium), 20,548 cpm.

As for `O[C@H]1[C@H](O)[C@@H](O)CN2CC[C@H](O)[C@H]12` [Castanospermine], the activation at 100 µg/mL in the assay with HT-29 cells (setting [1]) is 8%. Further, the “Adhesion (cpm)” value is 12,410 cpm in the assay with HT-29 cells (setting [2]); 13,787 cpm with HT-29 cells (setting [3]); 13,973 cpm with HT-29 cells (setting [4]); 13,626 cpm in the assay with HT-29 cells (setting [5]); 14,943 cpm in the assay with HT-29 cells (setting [6]). Also, in the assay on HT-29 cells, the “change in the amount of radioactive bacteria bound” value is reported as “did not cause any significant change”.

Turning to `O=C1N[C@@H]2[C@@H](O)[C@@H](O)[C@H](O)[C@@H](CO)N2C1=O` [Kifunensine], the activation at 2 µg/mL with HT-29 cells (Homo sapiens, HT-29, inhibitor 2 μg/ml, percent relative to the control, read-out: Increase in adhesion (%)) is 42%. Moreover, in the assay with HT-29 cells (setting [1]), the activation at 5 µg/mL is 50%. In addition, in the assay on HT-29 cells (setting [1]), the activation at 10 µg/mL turned out to be 43%. Also, the activation at 25 µg/mL in the assay with HT-29 cells (setting [1]) was determined as 52%. Moreover, in the assay on HT-29 cells (setting [1]), the activation at 50 µg/mL was 75%. Further, the “Adhesion (cpm)” value is given as 19,033 cpm in the assay with HT-29 cells (inhibitor 2 μg/ml in culture medium); 20,161 cpm in the assay on HT-29 cells (setting [2]); 19,257 cpm in the assay on HT-29 cells (setting [3]); 20,414 cpm with HT-29 cells (setting [4]); 23,442 cpm in the assay with HT-29 cells (setting [5]).

Turning to `CC(=O)N[C@H]1C(O)O[C@H](CO)[C@H](O)[C@@H]1O` (some centres unmarked) [N-acetylgalactosamine], in the assay with Enterobacter cloacae, the inhibition of binding entry is “did not inhibit binding”.

As to `CC(=O)N[C@H]1C(O)O[C@H](CO)[C@@H](O)[C@@H]1O` (some centres unmarked) [N-acetylglucosamine], the inhibition of binding result in the assay with Enterobacter cloacae is reported as “did not inhibit binding”.

One may read the inhibition as how much of the control response was suppressed.
